Source: US7070983B2, “Mutant Pseudomonas putida strains and methods of use thereof” (priority 2003, dated 2006)

Legend:
Type in all cases: cell-based, Pseudomonas putida
[1] = tested on: the eight Str mutants with increased tolerance to 4HBA; assay: Resistance level to streptomycin, Str mutants as a group
Excerpt: (§1) Spontaneous streptomycin-resistant (Str), gentamicin-resistant (Gen) or rifampicin-resistant (Rif) mutants were obtained from colonies that grew within 3 days after wild-type cells were spread on LB agar containing various concentrations of antibiotic.
Streptomycin resistance frequently results from a mutation in the rpsL gene for the ribosomal protein S12 (Hosoya et al., ((1998) Antimirob Agents Chemother 42:204–2047); Inaoka et al., ((2001) J Bacteriol 183:4958–4963); Shima et al., ((1996) J Bacterial 178:7276–7284)). Rifampicin resistance results from a mutation in the rpoB gene (β-subunit of RNA polymerase) (Heep et al., ((1999) Antimicrob Agents Chemother 43:1497–1499); Jin and Gross, ((1988) J Mol Biol 202:45–58); Wichelhaus et al., ((1999) Antimicrob Agents Chemother 43:2813–2816); Hu et al., ((2002) J Bacteriol 184: 3984–3991)). We therefore sequenced and compared the rpsL gene and rpoB gene from the mutants to the wild-type strain.

[2] = tested on: P. putida strain no. 2 (str-1); assay: Resistance level to antibiotic on LB agar; details: 1 days on LB agar
Excerpt: as §1

[3] = tested on: P. putida strain no. 5 (str-1); assay: Resistance level to antibiotic on LB agar; details: 1 days on LB agar
Excerpt: as §1

[4] = tested on: P. putida strain no. 3 (str-1); assay: Resistance level to antibiotic on LB agar; details: 1 days on LB agar
Excerpt: as §1

[5] = tested on: P. putida strain no. 9 (str-2); assay: Resistance level to antibiotic on LB agar; details: 1 days on LB agar
Excerpt: as §1

[6] = tested on: P. putida strain no. 4 (str-1); assay: Resistance level to antibiotic on LB agar; details: 1 days on LB agar
Excerpt: as §1

[7] = tested on: P. putida strain no. 8 (str-1); assay: Resistance level to antibiotic on LB agar; details: 1 days on LB agar
Excerpt: as §1

[8] = tested on: P. putida strain no. 10 (str-1); assay: Resistance level to antibiotic on LB agar; details: 1 days on LB agar
Excerpt: as §1

[9] = tested on: P. putida strain no. 6 (str-1); assay: Resistance level to antibiotic on LB agar; details: 1 days on LB agar
Excerpt: as §1

parental strain KH146-2 = assay: Antibiotic growth suppression on LB agar
Excerpt: as §1
We first isolated a number of spontaneous streptomycin-resistant (Str), gentamicin-resistant (Gen) and rifampicin-resistant (Rif) mutants of P. putida KH146-2. These mutants appeared at a frequency of 10^−5–10^−6 when KH146-2 cells were spread on LB agar containing various amounts of antibiotics. […] Forty mutants resistant to each antibiotic were randomly selected and examined for tolerance to 4-hydroxybenzoic acid (4HBA). 4HBA-tolerant strains, which could grow in the presence of 1% 4HBA, were detected among these antibiotic resistant mutants at a high frequency of 3 to 15% (Table 1). The highest frequency (15%) was detected in the mutants selected with 1000 μg ml^−1 of streptomycin. These 4HBA-tolerant isolates all grew as well as the parent strain on LB agar.

[10] = tested on: strain no. 3 carrying plasmid pYI433 containing the wild-type rpsL gene; assay: Complementation experiment, streptomycin resistance; details: strain no. 3 carrying pYI433; about the same as wild-type levels
Excerpt: To clone the rpsL gene, a 0.9-kb DNA region covering whole rpsL was amplified from the chromosomal DNA of P. putida KH146-2 using KDO DNA polymerase (Toyobo Biochemicals, Osaka). Oligonucleotide primers were designed according to the rpoC-rpsL-rpsG sequence of P. putida KT2440 (www.tigr.org); 5′-[…]-3′ (SEQ ID NO:7—nucleotides [nt]−368 to −341 upstream of rpsL) and 5′-[…]-3′ (SEQ ID NO:8—complementary to nt 107 to 135 downstream of rpsL). The amplified DNA fragments were cloned into plasmid pUC118 (Vieira and Messing, (1987) Methods Enzymol 153: 3–11) to confirm the sequence, then excised from the plasmids as a BamHI-SphI fragment using the restriction sites in the multi-cloning sequence of the vector and inserted between the BglII and SphI sites of the E. coli-Pseudomonas shuttle vector pNIT6010 carrying tet^R, a derivative of pNIT6011 (Nishijyo et al. (2001) Mol Microbiol 40:917–931). The resultant plasmid pYI433, as well as vector control pNIT6010, was introduced into the Str mutant no. 3 (str-1) by conjugation using E. coli HB101/pRK2013 as the helper (Comai et al. (1983) Plasmid 10:21–30). Fifty μg ml^−1 of tetracycline was used for selection of transformants.
[…]

Q: Which results are given for `[H]/N=C(/N)N[C@H]1[C@H](O)[C@@H](O)[C@H](O[C@@H]2O[C@@H](C)[C@](O)(C=O)[C@H]2O[C@@H]2O[C@@H](CO)[C@H](O)[C@@H](O)[C@@H]2NC)[C@@H](N/C(N)=N\[H])[C@@H]1O` [streptomycin]?
A: level of resistance to streptomycin [1]: > 100 mg/mL; resistance compared to the wild-type strain [1]: > 1000 fold; Resistance level to antibiotic [2]: >100,000 (STR) μg ml^−1; Resistance level to antibiotic [3]: >100,000 (STR) μg ml^−1; Resistance level to antibiotic [4]: >100,000 (STR) μg ml^−1; Resistance level to antibiotic [5]: >100,000 (STR) μg ml^−1; Resistance level to antibiotic [6]: >100,000 (STR) μg ml^−1; Resistance level to antibiotic [7]: >100,000 (STR) μg ml^−1; Resistance level to antibiotic [8]: >100,000 (STR) μg ml^−1; Resistance level to antibiotic [9]: >100,000 (STR) μg ml^−1; Concentration completely suppressing growth (parental strain KH146-2): 100 µg/mL; levels of Str (streptomycin resistance) [10]: 100 to 200 µg/mL
